The text below walks through data of the supplement of paper PMC11003180.

Assay in all cases: drug sensitivity score (DSS) from 5-dose viability curve (DSS (area-based score, 0 = no response)); higher = more sensitive (stronger viability inhibition); extreme values may be limits of the assay
The subject of experiment [1] is MDCK wild-type + doxycycline. The following applies: doxycycline: 10 ng/mL; 72 h. In outline:
(§1)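 Parental MDCK cells and MDCK cells with a doxycycline-inducible transgene were both grown with doxycycline at 10 ng/mL in the medium before plating, then dispensed at 2000 cells/well into 384-well plates pre-spotted with an oncology library of 528 drugs at five doses (1-10,000 nM). After 72 h at 37 °C, CellTiter-Glo luminescence was recorded and scaled on each plate between vehicle and positive controls. This scaled signal served as the viability readout, and drug sensitivity scores were derived from dose-response curve fits in the Breeze pipeline.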

In experiment [2] the test system is MDCK p60AmotL2-inducible + doxycycline (p60AmotL2 expressing). The following applies: doxycycline: 10 ng/mL; 72 h. The essentials: as §1
For experiment [3], the system named is MDCK wild-type - doxycycline. As to conditions: doxycycline: none; 72 h. In outline:
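An oncology library of 528 drugs was pre-spotted at five doses (1-10,000 nM) in 384-well plates, and parental MDCK cells without doxycycline were added at 2000 cells/well. The plates were kept at 37 °C for 72 h. Drug sensitivity scores were obtained by fitting dose-response curves in the Breeze pipeline to CellTiter-Glo viability readings scaled per plate between vehicle and positive controls.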

Each structure is given as a SMILES string.

In the case of `CC(C)N(C[C@H]1O[C@@H](n2cnc3c(N)ncnc32)[C@H](O)[C@@H]1O)[C@H]1C[C@@H](CCc2nc3cc(C(C)(C)C)ccc3[nH]2)C1` [Pinometostat], the drug sensitivity score in experiment [1], in experiment [2] and in experiment [3] was 0 each time.
In the case of `COc1cc(C)[nH]c(=O)c1CNC(=O)c1c(C)n([C@H](C)C2CCOCC2)c2ccccc12` [CPI-360], the drug sensitivity score came out at 0.1 in experiment [1], 1.3 in experiment [2] and 0 in experiment [3].
The corresponding values for `Cn1nccc1Nc1nccc(-c2ccn([C@H](CO)c3ccc(Cl)c(F)c3)c(=O)c2)n1` [Ravoxertinib] are 0, 0.2 and 0.
`COc1ccc(Cn2ccc3ccc(C(=O)NO)cc32)cc1`: the drug sensitivity score is 3.1 in experiment [1], 2.1 in experiment [2] and 0 in experiment [3].
As to `CCC1(c2ccc(N)cc2)CCC(=O)NC1=O` (centres undefined) [Aminoglutethimide], the drug sensitivity score in experiment [1], in experiment [2] and in experiment [3] was 0 in each case.
Take `Cn1cc(-c2ccc(F)c(C(F)(F)F)c2)nc1C1CCN(c2ncnc3[nH]ncc23)CC1`: the drug sensitivity score in experiment [1] is 0; in experiment [2] it was 3; in experiment [3] it was 0.
In the case of `Nc1nccc(-c2c(-c3ccc(F)cc3)ncn2C2CCCCC2)n1`, the results for the drug sensitivity score in experiment [1], in experiment [2] and in experiment [3] were 0.5, 2.3 and 0.7, respectively.
Take `CC(=O)c1c(C)c2cnc(Nc3ccc(N4CCNCC4)cn3)nc2n(C2CCCC2)c1=O` [Palbociclib]: the drug sensitivity score in experiment [1] was determined as 0.9; in experiment [2], 4.3; in experiment [3], 0.9.
Turning to `CS(=O)(=O)c1ccc(C(=O)Nc2ccc(Cl)c(-c3ccccn3)c2)c(Cl)c1` [Vismodegib], the drug sensitivity score in experiment [1], in experiment [2] and in experiment [3] was 0 throughout.
For the molecule `CC[C@@H]1[C@H](F)C(=O)N[C@@H]1COc1nccc2cc(C(N)=O)c(OC)cc12`, the drug sensitivity score in experiment [1] stood at 0.8; in experiment [2], 0.2; in experiment [3] it was 0.
Turning to `C=CC(=O)N1CCC(Oc2cc3c(Nc4ccc(Cl)c(Cl)c4F)ncnc3cc2OC)CC1` [Poziotinib], the results for the drug sensitivity score in experiment [1], in experiment [2] and in experiment [3] were 14.3, 27.9 and 9.2, respectively.
Regarding `CC(C)NC(=O)COc1cccc(-c2nc(Nc3ccc4[nH]ncc4c3)c3ccccc3n2)c1` [KD025], the drug sensitivity score in experiment [1] turned out to be 0; in experiment [2] it was 0; in experiment [3] it was 0.8.
Regarding `CON(C)C(=O)N1N=C(c2cc(F)ccc2F)S[C@@]1(CCCN)c1ccccc1` [Filanesib], the drug sensitivity score was found to be 28.7 in experiment [1], 27.5 in experiment [2] and 29.1 in experiment [3].
Consider `CC[C@@H](C(=O)[C@@H](C)[C@@H](O)[C@H](C)[C@@H]1O[C@@H]([C@@H](CC)C(=O)O)CC[C@@H]1C)[C@H]1O[C@]2(C=C[C@@H](O)[C@]3(CC[C@@](C)([C@H]4CC[C@](O)(CC)[C@H](C)O4)O3)O2)[C@H](C)C[C@@H]1C` [Salinomycin], for which the results for the drug sensitivity score in experiment [1], in experiment [2] and in experiment [3] were 0.9, 18.7 and 0.4, respectively.
The corresponding values for `COc1ccc(C[C@H](NC(=O)[C@H](C)NC(=O)CN2CCOCC2)C(=O)N[C@@H](Cc2ccccc2)C(=O)C2(C)CO2)cc1` (stereo in doubt) [ONX-0914] are 10.4, 12.5 and 8.6.
Take `C=CC(=O)N1CCC[C@@H](n2nc(-c3ccc(Oc4ccccc4)cc3)c3c(N)ncnc32)C1` [Ibrutinib]: the drug sensitivity score is 3.8 in experiment [1], 9.7 in experiment [2] and 4.5 in experiment [3].
The corresponding values for `COc1cccc2c1C(=O)c1c(O)c3c(c(O)c1C2=O)C[C@@](O)(C(=O)CO)C[C@@H]3O[C@H]1C[C@H](N)[C@@H](O)[C@H](C)O1` [Epirubicin] are 10, 11.6 and 5.9.
The corresponding values for `COC(=O)N[C@@H](C)CNc1nccc(-c2cn(C(C)C)nc2-c2cc(Cl)cc(NS(C)(=O)=O)c2F)n1` [Encorafenib] are 0, 0 and 0.2.
Turning to `Nc1nc(Cl)nc2c1ncn2[C@@H]1O[C@H](CO)[C@@H](O)[C@@H]1F` [Clofarabine], the results for the drug sensitivity score in experiment [1], in experiment [2] and in experiment [3] were 12.9, 13.8 and 12.1, respectively.
The corresponding values for `Nc1nc(Cl)nc2c1ncn2[C@H]1C[C@H](O)[C@@H](CO)O1` [Cladribine] are 2.3, 2.3 and 1.2.
`C=CCn1c(=O)c2cnc(Nc3ccc(N4CCN(C)CC4)cc3)nc2n1-c1cccc(C(C)(C)O)n1` [AZD1775]: the drug sensitivity score in experiment [1] was 15.9; in experiment [2] it was 12.9; in experiment [3] it was 12.1.
Consider `C[C@@H](Oc1cc(-c2cnn(C3CCNCC3)c2)cnc1N)c1c(Cl)ccc(F)c1Cl` [Crizotinib], for which the drug sensitivity score in experiment [1], in experiment [2] and in experiment [3] was 0 throughout.
Regarding `CC/C(=C(\c1ccc(O)cc1)c1ccc(OCCN(C)C)cc1)c1ccccc1` [4-hydroxytamoxifen], the drug sensitivity score in experiment [1] was 4.3; in experiment [2], 5.7; in experiment [3], 1.2.
For `Cc1cc(Nc2ncnc3ccc(NC4=NC(C)(C)CO4)cc23)ccc1Oc1ccn2ncnc2c1` [Tucatinib], the drug sensitivity score in experiment [1], in experiment [2] and in experiment [3] was 0 each time.
In the case of `COc1cc2ncnc(Nc3ccc(F)c(Cl)c3)c2cc1OCCCN1CCOCC1` [Gefitinib], the drug sensitivity score was found to be 1.5 in experiment [1], 17.9 in experiment [2] and 3.2 in experiment [3].
Consider `COC[C@H](NC(=O)c1cnc(C)s1)C(=O)N[C@@H](COC)C(=O)N[C@@H](Cc1ccccc1)C(=O)[C@@]1(C)CO1` [Oprozomib], for which the drug sensitivity score in experiment [1] was determined as 17.6; in experiment [2], 17.4; in experiment [3], 17.9.
`N#CC1(c2ccc(NC(=O)c3cccnc3NCc3ccncc3)cc2)CCCC1` [Apatinib]: the values for the drug sensitivity score in experiment [1], in experiment [2] and in experiment [3] were 2.7, 0 and 0, respectively.
Regarding `COc1cc([C@@H]2c3cc4c(cc3[C@@H](O[C@@H]3O[C@@H]5CO[C@@H](C)O[C@H]5[C@H](O)[C@H]3O)[C@H]3COC(=O)[C@H]23)OCO4)cc(OC)c1O` [Etoposide], the drug sensitivity score in experiment [1] came to 6.9; in experiment [2], 9.5; in experiment [3], 4.3.
As for `C[C@@H]1CCN(C(=O)CC#N)C[C@@H]1N(C)c1ncnc2[nH]ccc12` [Tofacitinib], the drug sensitivity score in experiment [1], in experiment [2] and in experiment [3] was 0 throughout.
On to `N#CCNC(=O)c1ccc(-c2ccnc(Nc3ccc(N4CCOCC4)cc3)n2)cc1` [Momelotinib], for which the drug sensitivity score in experiment [1] is 2.7; in experiment [2], 3.3; in experiment [3], 3.7.
Regarding `N.N.[Cl][Pt][Cl]` [Cisplatin], the drug sensitivity score in experiment [1] is 12.2; in experiment [2], 13.5; in experiment [3] it was 5.7.
As to `CC[C@H](Nc1ncnc2[nH]cnc12)c1nc2cccc(F)c2c(=O)n1-c1ccccc1` [Idelalisib], the drug sensitivity score is 0 in experiment [1], 0.7 in experiment [2] and 0 in experiment [3].
With `C[C@]1(O)C[C@@H](c2nc(-c3ccc4ccc(-c5ccccc5)nc4c3)c3c(N)nccn32)C1` [Linsitinib], the drug sensitivity score in experiment [1], in experiment [2] and in experiment [3] was 0 throughout.
With `CCN(c1cc(-c2ccc(CN3CCOCC3)cc2)cc(C(=O)NCc2c(C)cc(C)[nH]c2=O)c1C)C1CCOCC1` [Tazemetostat], the drug sensitivity score in experiment [1] was found to be 0; in experiment [2] it was 2.1; in experiment [3], 0.
Take `CC(=O)c1cc2c(o1)C(=O)c1ccccc1C2=O` [Napabucasin]: the figures for the drug sensitivity score in experiment [1], in experiment [2] and in experiment [3] were 18.5, 18.1 and 18.3, respectively.
Consider `Clc1ccc(C(c2ccccc2Cl)C(Cl)Cl)cc1` (centres undefined) [Mitotane], for which the drug sensitivity score in experiment [1], in experiment [2] and in experiment [3] was 0 throughout.
In the case of `CCS(=O)(=O)c1cccc(-c2cc(C(=O)NC3CCN(C)CC3)c(C)c3[nH]c4ncc(C)cc4c23)c1` [TAK-901], the values for the drug sensitivity score in experiment [1], in experiment [2] and in experiment [3] were 0.7, 1.8 and 0, respectively.
Consider `O=C(CCCCCCNC(=O)c1cnc(N(c2ccccc2)c2ccccc2)nc1)NO` [Rocilinostat], for which the drug sensitivity score in experiment [1] was determined as 4.9; in experiment [2] it was 7.2; in experiment [3], 4.5.
